{
  "source": "paper PMC8908507",
  "about": "(ACS Omega, 2022)",
  "key": {"[1]": {"tested_on": "human MAO-B", "details": "read-out: IC50 human MAO-B; cited from earlier work"}, "[2]": {"target": "T1, MAO-B (Homo sapiens, UniProt P27338)", "T1 sequence (P27338 1-520)": "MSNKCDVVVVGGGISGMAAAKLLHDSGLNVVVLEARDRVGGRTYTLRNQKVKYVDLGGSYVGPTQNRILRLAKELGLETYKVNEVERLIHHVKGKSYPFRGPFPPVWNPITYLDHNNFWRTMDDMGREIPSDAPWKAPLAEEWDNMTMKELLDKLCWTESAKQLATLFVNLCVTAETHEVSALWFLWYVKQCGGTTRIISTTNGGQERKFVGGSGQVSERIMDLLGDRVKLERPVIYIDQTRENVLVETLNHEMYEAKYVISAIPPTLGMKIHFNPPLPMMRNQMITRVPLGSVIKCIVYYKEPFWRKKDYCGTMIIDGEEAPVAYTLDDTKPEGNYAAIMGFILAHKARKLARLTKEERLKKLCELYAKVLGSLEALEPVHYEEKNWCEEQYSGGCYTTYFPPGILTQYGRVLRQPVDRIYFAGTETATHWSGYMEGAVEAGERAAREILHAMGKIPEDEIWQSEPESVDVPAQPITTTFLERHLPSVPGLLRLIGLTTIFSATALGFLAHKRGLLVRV", "assay": "Reversibility of MAO-B inhibition by dialysis", "format": "biochemical"}, "[3]": {"target": "T1, MAO-B", "assay": "MAO-B enzyme kinetics, Lineweaver–Burk and secondary plots", "format": "biochemical"}, "[4]": {"tested_on": "Vero cells", "assay": "Intracellular ROS assay in H2O2-treated Vero cells", "format": "cell-based, African green monkey", "details": "24 h drug treatment, vs H2O2-treated control"}, "[5]": {"target": "T1, MAO-B", "assay": "MAO-B inhibition, recombinant enzyme, benzylamine substrate", "format": "biochemical"}, "[6]": {"target": "BChE (Equus caballus, UniProt P81908)", "sequence (P81908 whole entry)": "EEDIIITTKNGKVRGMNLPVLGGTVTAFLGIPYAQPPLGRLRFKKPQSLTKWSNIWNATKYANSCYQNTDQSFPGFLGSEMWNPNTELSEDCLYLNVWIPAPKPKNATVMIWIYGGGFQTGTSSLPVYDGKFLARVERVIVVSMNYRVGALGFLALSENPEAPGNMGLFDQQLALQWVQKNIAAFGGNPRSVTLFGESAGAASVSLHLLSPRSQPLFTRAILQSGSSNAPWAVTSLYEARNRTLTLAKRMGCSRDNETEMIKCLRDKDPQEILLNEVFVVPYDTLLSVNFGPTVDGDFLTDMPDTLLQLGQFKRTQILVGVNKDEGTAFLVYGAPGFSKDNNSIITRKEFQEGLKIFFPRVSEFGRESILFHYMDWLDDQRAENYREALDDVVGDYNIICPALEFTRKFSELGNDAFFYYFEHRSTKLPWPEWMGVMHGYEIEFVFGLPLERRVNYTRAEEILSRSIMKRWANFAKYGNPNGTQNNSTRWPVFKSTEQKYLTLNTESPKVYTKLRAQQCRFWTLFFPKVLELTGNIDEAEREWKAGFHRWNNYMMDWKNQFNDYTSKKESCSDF", "details": "10 μM"}, "[7]": {"assay": "Cytotoxicity on Vero cells, MTT method", "format": "cell-based, African green monkey", "details": "African green monkey, Vero cells (normal kidney epithelial cell line)"}, "[8]": {"tested_on": "Vero cells", "assay": "Cytotoxicity on Vero cells, MTT method", "format": "cell-based, African green monkey", "details": "100 μg/mL, 24 h"}, "[9]": {"target": "AChE (Electrophorus electricus, UniProt O42275)", "sequence (O42275 24-633)": "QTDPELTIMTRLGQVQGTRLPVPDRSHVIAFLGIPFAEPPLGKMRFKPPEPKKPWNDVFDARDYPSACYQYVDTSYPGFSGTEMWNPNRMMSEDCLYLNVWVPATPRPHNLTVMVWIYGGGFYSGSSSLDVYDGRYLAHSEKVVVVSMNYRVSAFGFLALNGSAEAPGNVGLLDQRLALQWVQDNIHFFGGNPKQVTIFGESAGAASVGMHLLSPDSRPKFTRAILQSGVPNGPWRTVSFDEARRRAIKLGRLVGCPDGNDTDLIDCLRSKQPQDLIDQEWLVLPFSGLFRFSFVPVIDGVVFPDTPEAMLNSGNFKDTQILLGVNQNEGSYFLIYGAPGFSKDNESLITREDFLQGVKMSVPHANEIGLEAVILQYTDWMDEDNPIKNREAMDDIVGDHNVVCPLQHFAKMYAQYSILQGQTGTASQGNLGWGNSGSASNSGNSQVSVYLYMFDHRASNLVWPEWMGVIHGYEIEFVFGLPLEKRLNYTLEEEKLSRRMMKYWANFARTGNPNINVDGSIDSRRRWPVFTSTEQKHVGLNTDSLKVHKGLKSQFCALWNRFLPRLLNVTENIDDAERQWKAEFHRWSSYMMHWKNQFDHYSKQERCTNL", "assay": "AChE inhibition", "details": "10 μM"}, "[10]": {"target": "BACE1 (Homo sapiens, UniProt P56817)", "sequence (P56817 46-501)": "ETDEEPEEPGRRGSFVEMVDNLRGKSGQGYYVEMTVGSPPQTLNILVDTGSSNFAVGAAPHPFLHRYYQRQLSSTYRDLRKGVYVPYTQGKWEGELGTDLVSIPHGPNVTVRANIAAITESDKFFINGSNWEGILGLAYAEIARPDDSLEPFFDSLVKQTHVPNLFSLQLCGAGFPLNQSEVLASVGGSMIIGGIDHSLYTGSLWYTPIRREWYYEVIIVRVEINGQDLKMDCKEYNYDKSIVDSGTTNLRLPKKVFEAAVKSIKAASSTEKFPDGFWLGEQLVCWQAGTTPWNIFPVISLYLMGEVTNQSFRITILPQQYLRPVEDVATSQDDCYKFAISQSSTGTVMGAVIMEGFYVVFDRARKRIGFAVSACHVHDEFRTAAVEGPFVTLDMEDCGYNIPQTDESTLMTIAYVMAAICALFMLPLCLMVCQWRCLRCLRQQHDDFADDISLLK", "assay": "biochemical", "details": "read-out: residual activity (%) BACE1"}, "[11]": {"target": "T2, MAO-A (Homo sapiens, UniProt P21397)", "T2 sequence (P21397 1-527)": "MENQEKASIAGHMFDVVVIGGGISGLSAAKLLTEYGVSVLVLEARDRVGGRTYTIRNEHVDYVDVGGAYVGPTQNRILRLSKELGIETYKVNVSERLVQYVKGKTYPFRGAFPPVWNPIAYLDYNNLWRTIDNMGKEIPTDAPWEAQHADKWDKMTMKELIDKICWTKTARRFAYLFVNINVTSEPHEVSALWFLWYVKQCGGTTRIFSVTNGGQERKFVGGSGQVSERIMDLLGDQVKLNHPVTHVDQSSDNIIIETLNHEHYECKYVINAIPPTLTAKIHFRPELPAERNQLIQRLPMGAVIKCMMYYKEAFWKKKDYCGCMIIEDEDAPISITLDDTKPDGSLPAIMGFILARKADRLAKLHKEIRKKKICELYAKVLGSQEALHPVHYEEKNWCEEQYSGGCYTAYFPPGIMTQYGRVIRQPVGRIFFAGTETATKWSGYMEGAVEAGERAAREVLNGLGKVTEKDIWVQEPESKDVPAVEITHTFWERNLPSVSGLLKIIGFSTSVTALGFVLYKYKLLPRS", "assay": "biochemical"}},
  "note": "Entries after “also recorded” stand apart in the source; their conditions may differ.",
  "data": [
    {"compound": "O=C(/C=C/C=C/c1ccc(Cl)cc1)c1ccc(O)cc1O", "note": "[(2E,4E)-5-(4-chlorophenyl)-1-(2,4-dihydroxyphenyl)penta-2,4-dien-1-one]", "values": [
      {"measurement": "IC50", "setting": "[1]", "result": 11.3, "unit": "nM"}
    ]},
    {"compound": "COc1ccc(C(=O)/C=C/C=C/c2ccc(Cl)cc2)c(O)c1", "note": "[(2E,4E)-5-(4-chlorophenyl)-1-(2-hydroxy-4-methoxyphenyl)penta-2,4-dien-1-one]", "values": [
      {"measurement": "IC50", "setting": "[1]", "result": 4.51, "unit": "nM"}
    ]},
    {"compound": "COc1ccc(/C=C/C=C/C(=O)c2ccc(F)cc2)cc1", "note": "[MK12, (2E,4E)-1-(4-Fluorophenyl)-5-(4-methoxyphenyl)penta-2,4-dien-1-one]", "values": [
      {"measurement": "relative MAO-B activity, dialyzed (AD)", "setting": "[2]; MK6/MK12 6.0 nM, lazabemide 0.22 μM, pargyline 0.28 μM, after dialysis", "result": 74.7, "unit": "%"},
      {"measurement": "relative MAO-B activity, undialyzed (AU)", "setting": "[2]; MK6/MK12 6.0 nM, lazabemide 0.22 μM, pargyline 0.28 μM, preincubation 30 min", "result": 33.4, "unit": "%"},
      {"measurement": "reversibility of MAO-B inhibition", "setting": "[2]; dialysis", "result": "reversible inhibitors"},
      {"measurement": "Ki", "setting": "[3]", "result": "3 ± 0.27", "unit": "nM"},
      {"measurement": "inhibition type for MAO-B", "setting": "[3]; Lineweaver–Burk plots", "result": "competitive inhibitors"},
      {"measurement": "intracellular ROS scavenging", "setting": "[4]", "result": "significant scavenging effect of reactive oxygen species; also recorded: significant ROS scavenging effect"},
      {"measurement": "SI (MAO-B compared with MAO-A)", "setting": "[5]; IC50 (MAO-A)/IC50 (MAO-B)", "result": 1780.5},
      {"measurement": "IC50", "setting": "[5]; IC50 MAO-B", "result": "3.22 ± 0.04", "unit": "nM"},
      {"measurement": "remaining activity at 1 µM", "setting": "[5]; read-out: residual activity (%) MAO-B", "result": -2.71, "unit": "%"},
      {"measurement": "times higher inhibitory activity than pargyline (MAO-B)", "setting": "[5]; vs reference irreversible MAO-B inhibitor pargyline", "result": 44, "unit": "times"},
      {"measurement": "times more potent than lazabemide (MAO-B)", "setting": "[5]; vs reference reversible MAO-B drug lazabemide", "result": 34, "unit": "times"},
      {"measurement": "residual activity (%) BChE", "setting": "[6]", "result": "94.6 ± 1.11", "unit": "%"},
      {"measurement": "viability at 24 h, 40 μg/mL", "setting": "[7]", "result": "> 80", "unit": "%"},
      {"measurement": "toxicity by cellular morphology, phase-contrast microscopy", "setting": "[8]", "result": "most toxic of the four tested compounds"},
      {"measurement": "residual activity (%) AChE", "setting": "[9]", "result": "93.3 ± 0.73", "unit": "%"},
      {"measurement": "remaining activity at 10 µM", "setting": "[10]", "result": "81.4 ± 1.03", "unit": "%"},
      {"measurement": "IC50", "setting": "[11]", "result": "5700 ± 720", "unit": "nM"},
      {"measurement": "remaining activity at 10 µM", "setting": "[11]; read-out: residual activity (%) MAO-A", "result": "40.9 ± 1.24", "unit": "%"}
    ]}
  ]
}
